From patent US11672803B2, “Use of inhibitors of Brutons tyrosine kinase (Btk)” (priority 2010, dated 2023)

Assays:
[1] = tested on: individuals with mantle cell lymphoma; assay: Absolute lymphocyte count vs cycle day in individuals with mantle cell lymphoma; assay type: in vivo, human
Description: Patients 32006, 38003, and 38004 were treated on schedule of 4 weeks on treatment followed by one week off. Thus, day 1 of each cycle follows one week off drug for these patients. The other patients were treated with continuous daily dosing.

[2] = tested on: individuals with follicular lymphoma; assay: Absolute lymphocyte count / B cell mobilization vs cycle day in individuals with follicular lymphoma; assay type: in vivo, human
Description: All Patients (except Pt 32009) were treated on schedule of 4 weeks on treatment followed by one week off. Thus, day 1 of each cycle follows one week off drug for these patients.
All Patients were treated on schedule of 4 weeks on treatment followed by one week off. Thus, day 1 of each cycle follows one week off drug for these patients.
All Patients except 38010 were treated on schedule of 4 weeks on treatment followed by one week off. Thus, day 1 of each cycle follows one week off drug for these patients.

individuals with DLBCL = assay: Absolute lymphocyte count vs cycle day in individuals with DLBCL; assay type: in vivo, human; settings: PD individuals, FIG. 11
Description: Patient 38011 was treated on schedule of 4 weeks on treatment followed by one week off. Thus, day 1 of each cycle follows one week off drug for this patient. Patients 38008 and 324001 were treated with continuous daily doses.
All Patients were treated on schedule of 4 weeks on treatment followed by one week off. Thus, day 1 of each cycle follows one week off drug for these patients. […] Patient 32002 received only one cycle of treatment.

DoHH2 cells = assay: Alamar blue assay in DoHH2 cells; assay type: cell-based; settings: DLBCL cell line from a transformed follicular lymphoma patient
Description: DOHH2 is a DLBCL (diffuse large B-cell lymphoma) cell line, from a transformed follicular lymphoma patient.
Assay was an alamar blue assay.

SMILES: C=CC(=O)N1CCC[C@@H](n2nc(-c3ccc(Oc4ccccc4)cc3)c3c(N)ncnc32)C1 [Btk inhibitor, (R)-1-(3-(4-amino-3-(4-phenoxyphenyl)-1H-pyrazolo[3,4-d]pyrimidin-1-yl)piperidin-1-yl)prop-2-en-1-one]
- Lymphocyte mobilization (ALC) ([1]; patient with initial PD (32014), FIG. 12): failed to show mobilization
- Lymphocyte mobilization (ALC) ([1]; responding patients, FIG. 13): all responding patients showed some degree of mobilization
- B cell fraction change by cycle ([2]; Patient 32007, Cohort 4, follicular lymphoma grade 3, regressed from SD to CR, FIG. 14): characteristic cyclic increases
- Lymphocyte mobilization (ALC) ([2]; follicular lymphoma, PD individuals, FIG. 9): lack of mobilization
- Absolute lymphocyte count (ALC) change by cycle ([2]; follicular lymphoma, complete or partial response (CR/PR), 4 weeks on, 1 week off, FIG. 7): increases of ALC during most cycles of most patients
- Lymphocyte mobilization (ALC) (individuals with DLBCL): lack of mobilization for 3 of the 4 patients
- Sensitivity of DOHH2 cell line (DoHH2 cells): moderately sensitive
